Data published in patent US20200354426A1 (MEDIMMUNE LIMITED, priority 2016, published 2020).
Numbered stars: 1 amine (or outer) side, 2 acyl side, 3 side chain; on linkers, the order of the positions; unused ones are H or OH. Side chains are listed from the residue outwards. Peptide text beside a SMILES is read from it. * marks the point of attachment. γGlu = O=C(O)[C@H](CCC(=O)[*:2])N[*:1]; Palmitoyl = CCCCCCCCCCCCCCCC(=O)*; Ahx = NCCCCCC(=O)O; βAla = NCCC(=O)O

Key:
Test in all cases: cAMP activity assay in assay medium (assay 1)
Type in all cases: cell-based
Human GlucR = molecular target: T1, Human GlucR (Homo sapiens, UniProt P47871); settings: assay medium; Table 4; read-out: hGlucR EC50
T1 construct: expressed in transfected cells
T1 sequence (P47871 26-477): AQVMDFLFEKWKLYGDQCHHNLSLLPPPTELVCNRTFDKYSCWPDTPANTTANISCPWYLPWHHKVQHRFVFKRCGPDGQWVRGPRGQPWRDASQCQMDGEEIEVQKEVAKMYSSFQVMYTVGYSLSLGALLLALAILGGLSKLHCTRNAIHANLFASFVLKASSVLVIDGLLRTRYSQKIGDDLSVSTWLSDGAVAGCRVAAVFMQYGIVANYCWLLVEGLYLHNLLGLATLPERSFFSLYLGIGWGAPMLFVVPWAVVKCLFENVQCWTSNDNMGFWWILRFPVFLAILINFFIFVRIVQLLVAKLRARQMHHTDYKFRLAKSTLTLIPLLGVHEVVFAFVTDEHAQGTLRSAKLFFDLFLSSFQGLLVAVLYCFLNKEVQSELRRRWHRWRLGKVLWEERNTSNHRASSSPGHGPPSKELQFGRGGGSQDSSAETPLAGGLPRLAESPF
Text: (§1) Biological Activity of Peptides in Cell-Based cAMP Activity Assay (Assay 1):
(§2) All sample dilutions were made in duplicate.

Human GIPr = molecular target: T2, Human GIPr (Homo sapiens, UniProt P48546); settings: assay medium; Table 4; read-out: hGIPR EC50
T2 construct: expressed in transfected cells
T2 sequence (P48546 22-466): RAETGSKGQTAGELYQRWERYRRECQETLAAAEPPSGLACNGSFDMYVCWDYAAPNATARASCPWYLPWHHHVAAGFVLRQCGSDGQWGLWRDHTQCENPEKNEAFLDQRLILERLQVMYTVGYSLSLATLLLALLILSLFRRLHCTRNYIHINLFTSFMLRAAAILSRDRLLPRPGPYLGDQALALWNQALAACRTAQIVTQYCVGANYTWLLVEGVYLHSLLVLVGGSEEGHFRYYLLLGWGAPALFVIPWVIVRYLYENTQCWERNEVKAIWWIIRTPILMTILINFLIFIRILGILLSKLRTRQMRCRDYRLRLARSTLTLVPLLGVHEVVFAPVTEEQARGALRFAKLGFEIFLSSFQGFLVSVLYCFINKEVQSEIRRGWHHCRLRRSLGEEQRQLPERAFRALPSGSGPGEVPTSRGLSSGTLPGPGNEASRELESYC
Text: as §1, §2

Human GLP1R = Human GLP1R (Homo sapiens, UniProt P43220); set-up: expressed in transfected cells; settings: assay medium; Table 4; read-out: hGLP1R EC50
Chain of Human GLP1R (P43220 24-463): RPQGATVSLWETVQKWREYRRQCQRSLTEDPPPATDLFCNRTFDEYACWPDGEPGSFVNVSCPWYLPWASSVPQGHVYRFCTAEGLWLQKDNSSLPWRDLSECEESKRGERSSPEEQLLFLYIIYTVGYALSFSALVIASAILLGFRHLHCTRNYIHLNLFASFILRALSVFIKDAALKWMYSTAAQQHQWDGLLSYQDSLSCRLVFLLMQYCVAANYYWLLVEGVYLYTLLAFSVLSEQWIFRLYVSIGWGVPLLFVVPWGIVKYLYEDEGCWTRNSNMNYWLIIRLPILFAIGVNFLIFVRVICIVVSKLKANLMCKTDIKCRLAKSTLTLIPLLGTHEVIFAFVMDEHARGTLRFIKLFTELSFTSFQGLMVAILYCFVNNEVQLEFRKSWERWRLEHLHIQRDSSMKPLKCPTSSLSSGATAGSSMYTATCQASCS
Text: as §1, §2

Structure (SMILES) | EC50 (Human GlucR) | EC50 (Human GIPr) | EC50 (Human GLP1R)
CCCCCCCCCCCCCCCC(=O)NCCCCCC(=O)NCCCC[C@H](NC(=O)[C@H](CO)NC(=O)[C@H](CC(=O)O)NC(=O)[C@H](CC(C)C)NC(=O)[C@H](Cc1ccc(O)cc1)NC(=O)[C@H](CCC(=O)O)NC(=O)[C@H](CO)NC(=O)[C@H](Cc1ccc(O)cc1)NC(=O)[C@H](CC(=O)O)NC(=O)[C@H](CO)NC(=O)[C@@H](NC(=O)[C@H](Cc1ccccc1)NC(=O)[C@@H](NC(=O)CNC(=O)[C@H](CCC(N)=O)NC(=O)[C@H](CO)NC(=O)[C@@H](N)Cc1c[nH]cn1)[C@@H](C)O)[C@@H](C)O)C(=O)N[C@@H](CCCNC(=N)N)C(=O)N[C@@H](C)C(=O)N[C@@H](CCCNC(=N)N)C(=O)N[C@@H](CC(=O)O)C(=O)N[C@@H](Cc1ccccc1)C(=O)N[C@H](C(=O)N[C@@H](C)C(=O)N[C@@H](Cc1c[nH]c2ccccc12)C(=O)N[C@@H](CC(C)C)C(=O)N[C@@H](CCC(=O)O)C(=O)N[C@@H](CCCNC(=N)N)C(=O)NCC(=O)NCC(N)=O)C(C)C [g794] (H-HSQGTFTSDYSEYLDSK([Ahx-Palmitoyl])RARDFVAWLERGG-NH2; N-terminus assumed) | 0.00469 nM | 32.2 nM | 0.0157 nM
CCCCCCCCCCCCCCCC(=O)NCCC(=O)NCCCC[C@H](NC(=O)[C@H](CO)NC(=O)[C@H](CC(=O)O)NC(=O)[C@H](CC(C)C)NC(=O)[C@H](Cc1ccc(O)cc1)NC(=O)[C@H](CCC(=O)O)NC(=O)[C@H](CO)NC(=O)[C@H](Cc1ccc(O)cc1)NC(=O)[C@H](CC(=O)O)NC(=O)[C@H](CO)NC(=O)[C@@H](NC(=O)[C@H](Cc1ccccc1)NC(=O)[C@@H](NC(=O)CNC(=O)[C@H](CCC(N)=O)NC(=O)[C@H](CO)NC(=O)[C@@H](N)Cc1c[nH]cn1)[C@@H](C)O)[C@@H](C)O)C(=O)N[C@@H](CCCNC(=N)N)C(=O)N[C@@H](C)C(=O)N[C@@H](CCCNC(=N)N)C(=O)N[C@@H](CC(=O)O)C(=O)N[C@@H](Cc1ccccc1)C(=O)N[C@H](C(=O)N[C@@H](C)C(=O)N[C@@H](Cc1c[nH]c2ccccc12)C(=O)N[C@@H](CC(C)C)C(=O)N[C@@H](CCC(=O)O)C(=O)N[C@@H](CCCNC(=N)N)C(=O)NCC(=O)NCC(N)=O)C(C)C [g795] (H-HSQGTFTSDYSEYLDSK([βAla-Palmitoyl])RARDFVAWLERGG-NH2; N-terminus assumed) | 0.11 nM | 579 nM | 0.0734 nM
CCCCCCCCCCCCCCCC(=O)N[C@@H](CCC(=O)NCCCC[C@H](NC(=O)[C@H](CCC(=O)O)NC(=O)[C@H](CO)NC(=O)[C@H](Cc1ccc(O)cc1)NC(=O)[C@H](CC(=O)O)NC(=O)[C@H](CO)NC(=O)[C@@H](NC(=O)[C@H](Cc1ccccc1)NC(=O)[C@@H](NC(=O)CNC(=O)[C@H](CCC(N)=O)NC(=O)[C@H](CO)NC(=O)[C@@H](N)Cc1c[nH]cn1)[C@@H](C)O)[C@@H](C)O)C(=O)N[C@@H](CC(C)C)C(=O)N[C@@H](CC(=O)O)C(=O)N[C@@H](CO)C(=O)N[C@@H](CCC(=O)O)C(=O)N[C@@H](CCCNC(=N)N)C(=O)N[C@@H](C)C(=O)N[C@@H](CCCNC(=N)N)C(=O)N[C@@H](CC(=O)O)C(=O)N[C@@H](Cc1ccccc1)C(=O)N[C@H](C(=O)N[C@@H](C)C(=O)N[C@@H](Cc1c[nH]c2ccccc12)C(=O)N[C@@H](CC(C)C)C(=O)N[C@H](C(=O)N[C@@H](C)C(=O)NCC(=O)NCC(N)=O)C(C)C)C(C)C)C(=O)O [g802] (H-HSQGTFTSDYSEK([γGlu-Palmitoyl])LDSERARDFVAWLVAGG-NH2; N-terminus assumed) | 1.81 nM | 91.2 nM | 0.0964 nM
CCCCCCCCCCCCCCCC(=O)N[C@@H](CCC(=O)NCCCC[C@H](NC(=O)[C@H](Cc1ccc(O)cc1)NC(=O)[C@H](CCCCN)NC(=O)[C@H](CO)NC(=O)[C@H](Cc1ccc(O)cc1)NC(=O)[C@H](CC(=O)O)NC(=O)[C@H](CO)NC(=O)[C@@H](NC(=O)[C@H](Cc1ccccc1)NC(=O)[C@@H](NC(=O)CNC(=O)[C@H](CCC(N)=O)NC(=O)[C@H](CO)NC(=O)[C@@H](N)Cc1c[nH]cn1)[C@@H](C)O)[C@@H](C)O)C(=O)N[C@@H](CC(=O)O)C(=O)N[C@@H](CO)C(=O)N[C@@H](CCCNC(=N)N)C(=O)N[C@@H](CO)C(=O)N[C@@H](C)C(=O)N[C@@H](CCCNC(=N)N)C(=O)N[C@@H](CC(=O)O)C(=O)N[C@@H](Cc1ccccc1)C(=O)N[C@H](C(=O)N[C@@H](CCC(=O)O)C(=O)N[C@@H](Cc1c[nH]c2ccccc12)C(=O)N[C@@H](CC(C)C)C(=O)N[C@H](C(=O)N[C@@H](C)C(=O)NCC(=O)NCC(N)=O)C(C)C)C(C)C)C(=O)O [g803] (H-HSQGTFTSDYSKYK([γGlu-Palmitoyl])DSRSARDFVEWLVAGG-NH2; N-terminus assumed) | 0.0108 nM | 32.9 nM | 0.0296 nM
CCCCCCCCCCCCCCCC(=O)NCCCCCC(=O)NCCCC[C@H](NC(=O)[C@H](CCC(N)=O)NC(=O)[C@H](C)NC(=O)[C@H](C)NC(=O)[C@H](CCCNC(=N)N)NC(=O)[C@H](CO)NC(=O)[C@H](CC(=O)O)NC(=O)[C@H](CC(C)C)NC(=O)[C@H](Cc1ccc(O)cc1)NC(=O)[C@H](CCCCN)NC(=O)[C@H](CO)NC(=O)[C@H](Cc1ccc(O)cc1)NC(=O)[C@H](CC(=O)O)NC(=O)[C@H](CO)NC(=O)[C@@H](NC(=O)[C@H](Cc1ccccc1)NC(=O)[C@@H](NC(=O)CNC(=O)[C@H](CCC(N)=O)NC(=O)[C@H](CO)NC(=O)[C@@H](N)Cc1c[nH]cn1)[C@@H](C)O)[C@@H](C)O)C(=O)N[C@@H](Cc1ccccc1)C(=O)N[C@H](C(=O)N[C@@H](CCC(N)=O)C(=O)N[C@@H](Cc1c[nH]c2ccccc12)C(=O)N[C@@H](CC(C)C)C(=O)N[C@@H](CCC(=O)O)C(=O)N[C@@H](CCCNC(=N)N)C(=O)NCC(=O)NCC(N)=O)C(C)C [g806] (H-HSQGTFTSDYSKYLDSRAAQK([Ahx-Palmitoyl])FVQWLERGG-NH2; N-terminus assumed) | 0.0099 nM | 105 nM | 0.171 nM

These reach a lower EC50 (Human GlucR). Values come first.

EC50 (Human GlucR) | EC50 (Human GIPr) | EC50 (Human GLP1R) | Structure (SMILES)
0.00144 nM | 99.7 nM | 0.0228 nM | CCCCCCCCCCCCCCCC(=O)N[C@@H](CCC(=O)NCCCC[C@H](NC(=O)[C@H](Cc1ccc(O)cc1)NC(=O)[C@H](CCCCN)NC(=O)[C@H](CO)NC(=O)[C@H](Cc1ccc(O)cc1)NC(=O)[C@H](CC(=O)O)NC(=O)[C@H](CO)NC(=O)[C@@H](NC(=O)[C@H](Cc1ccccc1)NC(=O)[C@@H](NC(=O)CNC(=O)[C@H](CCC(N)=O)NC(=O)[C@H](CO)NC(=O)[C@@H](N)Cc1c[nH]cn1)[C@@H](C)O)[C@@H](C)O)C(=O)N[C@@H](CC(=O)O)C(=O)N[C@@H](CO)C(=O)N[C@@H](CCCNC(=N)N)C(=O)N[C@@H](CCCNC(=N)N)C(=O)N[C@@H](C)C(=O)N[C@@H](CCCNC(=N)N)C(=O)N[C@@H](CC(=O)O)C(=O)N[C@@H](Cc1ccccc1)C(=O)N[C@H](C(=O)N[C@@H](CCC(=O)O)C(=O)N[C@@H](Cc1c[nH]c2ccccc12)C(=O)N[C@@H](CC(C)C)C(=O)N[C@@H](CCC(=O)O)C(=O)N[C@@H](C)C(=O)NCC(=O)NCC(N)=O)C(C)C)C(=O)O [g805] (H-HSQGTFTSDYSKYK([γGlu-Palmitoyl])DSRRARDFVEWLEAGG-NH2; N-terminus assumed)
0.0011 nM | 20 nM | 0.0316 nM | CCCCCCCCCCCCCCCC(=O)N[C@@H](CCC(=O)NCCCC[C@H](NC(=O)[C@H](Cc1ccc(O)cc1)NC(=O)[C@H](CCCCN)NC(=O)[C@H](CO)NC(=O)[C@H](Cc1ccc(O)cc1)NC(=O)[C@H](CC(=O)O)NC(=O)[C@H](CO)NC(=O)[C@@H](NC(=O)[C@H](Cc1ccccc1)NC(=O)[C@@H](NC(=O)CNC(=O)[C@H](CCC(N)=O)NC(=O)[C@H](CO)NC(=O)[C@@H](N)Cc1c[nH]cn1)[C@@H](C)O)[C@@H](C)O)C(=O)N[C@@H](CC(=O)O)C(=O)N[C@@H](CO)C(=O)N[C@@H](CCC(=O)O)C(=O)N[C@@H](CCCNC(=N)N)C(=O)N[C@@H](C)C(=O)N[C@@H](CCC(N)=O)C(=O)N[C@@H](CC(=O)O)C(=O)N[C@@H](Cc1ccccc1)C(=O)N[C@H](C(=O)N[C@@H](CCC(N)=O)C(=O)N[C@@H](Cc1c[nH]c2ccccc12)C(=O)N[C@@H](CC(C)C)C(=O)N[C@@H](CCC(=O)O)C(=O)N[C@@H](C)C(=O)NCC(=O)NCC(N)=O)C(C)C)C(=O)O [g816]
0.00168 nM | 15.2 nM | 0.0251 nM | CCCCCCCCCCCCCCCC(=O)N[C@@H](CCC(=O)NCCCC[C@H](NC(=O)[C@H](Cc1ccc(O)cc1)NC(=O)[C@H](CCCCN)NC(=O)[C@H](CO)NC(=O)[C@H](Cc1ccc(O)cc1)NC(=O)[C@H](CC(=O)O)NC(=O)[C@H](CO)NC(=O)[C@@H](NC(=O)[C@H](Cc1ccccc1)NC(=O)[C@@H](NC(=O)CNC(=O)[C@H](CCC(N)=O)NC(=O)[C@H](CO)NC(=O)[C@@H](N)Cc1c[nH]cn1)[C@@H](C)O)[C@@H](C)O)C(=O)N[C@@H](CC(=O)O)C(=O)N[C@@H](CO)C(=O)N[C@@H](CCCNC(=N)N)C(=O)N[C@@H](C)C(=O)N[C@@H](C)C(=O)N[C@@H](CCC(N)=O)C(=O)N[C@@H](CC(=O)O)C(=O)N[C@@H](Cc1ccccc1)C(=O)N[C@H](C(=O)N[C@@H](CCC(N)=O)C(=O)N[C@@H](Cc1c[nH]c2ccccc12)C(=O)N[C@@H](CC(C)C)C(=O)N[C@@H](CCC(=O)O)C(=O)N[C@@H](C)C(=O)NCC(=O)NCC(N)=O)C(C)C)C(=O)O [g817] (H-HSQGTFTSDYSKYK([γGlu-Palmitoyl])DSRAAQDFVQWLEAGG-NH2; N-terminus assumed)
